How the values were obtained:
Type in all cases: in vivo
Matricaria inodora [1] = experiment: Herbicidal action pre-emergence, greenhouse pot test
Text: Seeds of mono- and dicotyledonous weeds and crop plants were laid out in plastic or organic plant pots and covered with soil. The compounds of the invention formulated in the form of wettable powders (WP) or as emulsion concentrates (EC) were then applied to the surface of the covering soil as an aqueous suspension or emulsion with addition of 0.5% additive at a water application rate equivalent to 600 L/ha. After the treatment, the pots were placed in a greenhouse and kept under good growth conditions for the test plants. After about 3 weeks, the efficacy of the preparations was scored visually as a percentage by comparison with untreated controls. For example, 100% efficacy=plants have died. 0% efficacy=like control plants. Tables B1 to B17 below show the efficacies of selected compounds of the general formula (I) […] aforementioned trial method.

Oryza sativa = experiment: Crop compatibility post-emergence, greenhouse pot test
Procedure, shortened: (§1)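 Visual % damage rating versus untreated plants (100% = plants dead, 0% = as control), taken about 3 weeks post-treatment. Spray applied to foliage at one-leaf stage (2–3 weeks from sowing) as WP/EC formulation in water plus 0.5% additive, 600 L/ha; greenhouse pots, sandy loam.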

Triticum aestivum = experiment: as above; details: application rate 20 g/ha
Procedure, shortened: as §1

Cyperus esculentus = experiment: Herbicidal action pre-emergence, greenhouse pot test; details: application rate 320 g/ha
Procedure, shortened: (§2)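 Under good greenhouse growth conditions, treated pots are compared visually with untreated ones about three weeks after spraying; the score runs from 0% (like control) to 100% (plants died). Treatment was a WP or EC spray to the soil over sown seeds, at up to 320 g/ha.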

Stellaria media [2] = experiment: as above
Procedure, shortened: as §2

Hordeum murinum = experiment: as above; details: application rate 320 g/ha
Procedure, shortened: as §2

Veronica persica [3] = experiment: as above
Procedure, shortened: as §2

Alopecurus myosuroides [4] = experiment: as above; details: application rate 320 g/ha
Procedure, shortened: as §2

Echinochloa crus-galli [5] = experiment: as above; details: application rate 320 g/ha
Procedure, shortened: as §2

Polygonum convolvulus [6] = experiment: as above
Procedure, shortened: as §2

Abutilon theophrasti [7] = experiment: as above
Procedure, shortened: as §2

Viola tricolor [8] = experiment: as above
Procedure, shortened: as §2

Setaria viridis [9] = experiment: as above
Procedure, shortened: as §2

Pharbitis purpurea [10] = experiment: as above
Procedure, shortened: as §2

Amaranthus retroflexus [11] = experiment: as above
Procedure, shortened: as §2

Lolium rigidum [12] = experiment: as above; details: application rate 320 g/ha
Procedure, shortened: as §2

Stellaria media [13] = experiment: Herbicidal action post-emergence, greenhouse pot test
Procedure, shortened: (§3)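 Test plants, treated at the one-leaf stage 2 to 3 weeks after sowing in sandy loam, received a foliar spray at 80 g/ha or lower. Visual damage was rated about 3 weeks later as percent efficacy versus untreated plants.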

Veronica persica [14] = experiment: as above
Procedure, shortened: as §3

Alopecurus myosuroides [15] = experiment: as above; details: application rate 80 g/ha, scored visually after about 3 weeks vs untreated controls
Procedure, shortened: as §3

Echinochloa crus-galli [16] = experiment: as above
Procedure, shortened: as §3

Polygonum convolvulus [17] = experiment: as above
Procedure, shortened: as §3

Abutilon theophrasti [18] = experiment: as above
Procedure, shortened: as §3

Viola tricolor [19] = experiment: as above
Procedure, shortened: as §3

Setaria viridis [20] = experiment: as above
Procedure, shortened: as §3

Pharbitis purpurea [21] = experiment: as above
Procedure, shortened: as §3

Amaranthus retroflexus [22] = experiment: as above
Procedure, shortened: as §3

Lolium rigidum [23] = experiment: as above; details: application rate 80 g/ha
Procedure, shortened: as §3

Matricaria inodora [24] = experiment: as above
Procedure, shortened: as §3

Avena fatua = experiment: Herbicidal action pre-emergence, greenhouse pot test; details: application rate 320 g/ha
Procedure, shortened: as §2

Zea mays = experiment: Crop compatibility post-emergence, greenhouse pot test; details: application rate 20 g/ha
Procedure, shortened: as §1

Compound	Matricaria inodora (Efficacy in %) (Matricaria inodora [1]; application rate 80 g/ha) [%]	Triticum aestivum (Efficacy in %) (Triticum aestivum) [%]	Cyperus esculentus (Efficacy in %) (Cyperus esculentus) [%]	Stellaria media (Efficacy in %) (Stellaria media [2]; application rate 80 g/ha) [%]	Hordeum murinum (Efficacy in %) (Hordeum murinum) [%]	Alopecurus myosuroides (Efficacy in %) (Alopecurus myosuroides [4]) [%]	Echinochloa crus-galli (Efficacy in %) (Echinochloa crus-galli [5]) [%]	Polygonum convolvulus (Efficacy in %) (Polygonum convolvulus [6]; application rate 80 g/ha) [%]	Abutilon theophrasti (Efficacy in %) (Abutilon theophrasti [7]; application rate 80 g/ha) [%]	Viola tricolor (Efficacy in %) (Viola tricolor [8]; application rate 80 g/ha) [%]	Setaria viridis (Efficacy in %) (Setaria viridis [9]; application rate 80 g/ha) [%]	Pharbitis purpurea (Efficacy in %) (Pharbitis purpurea [10]; application rate 320 g/ha) [%]	Lolium rigidum (Efficacy in %) (Lolium rigidum [12]) [%]	Veronica persica (Efficacy in %) (Veronica persica [14]; application rate 80 g/ha) [%]	Echinochloa crus-galli (Efficacy in %) (Echinochloa crus-galli [16]; application rate 80 g/ha) [%]	Polygonum convolvulus (Efficacy in %) (Polygonum convolvulus [17]; application rate 80 g/ha) [%]	Lolium rigidum (Efficacy in %) (Lolium rigidum [23]) [%]	Matricaria inodora (Efficacy in %) (Matricaria inodora [24]; application rate 80 g/ha) [%]	Oryza sativa (Efficacy in %) (Oryza sativa; application rate 20 g/ha) [%]	Avena fatua (Efficacy in %) (Avena fatua) [%]	other results
COC(=O)CC(C)OC(=O)C(C)Sc1cc(-n2c(=O)cc(C(F)(F)F)n(C)c2=O)c(F)cc1Cl (centres unmarked) [I.1-22]	100	20	90	100	100	80	100	100	100	100	100	100	100	100	100	100	90	100	–	–	Oryza sativa (Efficacy in %) (Oryza sativa; application rate 5 g/ha): 0%; Veronica persica (Efficacy in %) (Veronica persica [3]; application rate 320 g/ha): 100%; Amaranthus retroflexus (Efficacy in %) (Amaranthus retroflexus [11]; application rate 80 g/ha): 100%; Stellaria media (Efficacy in %) (Stellaria media [13]; application rate 80 g/ha): 100%; Alopecurus myosuroides (Efficacy in %) (Alopecurus myosuroides [15]): 80%; Abutilon theophrasti (Efficacy in %) (Abutilon theophrasti [18]; application rate 80 g/ha): 100%; Viola tricolor (Efficacy in %) (Viola tricolor [19]; application rate 80 g/ha): 100%; Setaria viridis (Efficacy in %) (Setaria viridis [20]; application rate 80 g/ha): 100%; Pharbitis purpurea (Efficacy in %) (Pharbitis purpurea [21]; application rate 80 g/ha): 100%; Amaranthus retroflexus (Efficacy in %) (Amaranthus retroflexus [22]; application rate 80 g/ha): 100%
COC(=O)COC(=O)C(C)Sc1cc(-n2c(=O)cc(C(F)(F)F)n(C)c2=O)c(F)cc1Cl (centres unmarked) [I.1-42]	100	20	100	100	100	90	100	100	100	100	100	–	100	100	–	–	90	–	10	90	Veronica persica (Efficacy in %) (Veronica persica [3]; application rate 80 g/ha): 100%; Pharbitis purpurea (Efficacy in %) (Pharbitis purpurea [10]; application rate 80 g/ha): 100%; Amaranthus retroflexus (Efficacy in %) (Amaranthus retroflexus [11]; application rate 20 g/ha): 100%; Stellaria media (Efficacy in %) (Stellaria media [13]; application rate 20 g/ha): 100%; Echinochloa crus-galli (Efficacy in %) (Echinochloa crus-galli [16]; application rate 20 g/ha): 100%; Polygonum convolvulus (Efficacy in %) (Polygonum convolvulus [17]; application rate 20 g/ha): 100%; Abutilon theophrasti (Efficacy in %) (Abutilon theophrasti [18]; application rate 20 g/ha): 100%; Viola tricolor (Efficacy in %) (Viola tricolor [19]; application rate 20 g/ha): 100%; Setaria viridis (Efficacy in %) (Setaria viridis [20]; application rate 20 g/ha): 100%; Pharbitis purpurea (Efficacy in %) (Pharbitis purpurea [21]; application rate 20 g/ha): 100%; Amaranthus retroflexus (Efficacy in %) (Amaranthus retroflexus [22]; application rate 20 g/ha): 100%; Matricaria inodora (Efficacy in %) (Matricaria inodora [24]; application rate 20 g/ha): 100%
COC(=O)C(C)OC(=O)C(C)Sc1cc(-n2c(=O)cc(C(F)(F)F)n(C)c2=O)c(F)cc1Cl (centres unmarked) [I.1-72]	100	20	100	100	80	–	100	100	100	100	100	100	–	100	100	100	–	100	10	90	Veronica persica (Efficacy in %) (Veronica persica [3]; application rate 80 g/ha): 100%; Amaranthus retroflexus (Efficacy in %) (Amaranthus retroflexus [11]; application rate 20 g/ha): 100%; Stellaria media (Efficacy in %) (Stellaria media [13]; application rate 80 g/ha): 100%; Abutilon theophrasti (Efficacy in %) (Abutilon theophrasti [18]; application rate 20 g/ha): 100%; Viola tricolor (Efficacy in %) (Viola tricolor [19]; application rate 80 g/ha): 100%; Setaria viridis (Efficacy in %) (Setaria viridis [20]; application rate 20 g/ha): 100%; Pharbitis purpurea (Efficacy in %) (Pharbitis purpurea [21]; application rate 20 g/ha): 100%; Amaranthus retroflexus (Efficacy in %) (Amaranthus retroflexus [22]; application rate 20 g/ha): 100%
CCNC(=O)COC(=O)C(C)Sc1cc(-n2c(=O)cc(C(F)(F)F)n(C)c2=O)c(F)cc1Cl (centres unmarked) [I.1-183]	–	–	80	–	90	90	100	–	–	–	–	100	90	–	100	100	100	100	20	90	Matricaria inodora (Efficacy in %) (Matricaria inodora [1]; application rate 320 g/ha): 100%; Zea mays (Efficacy in %) (Zea mays): 10%; Stellaria media (Efficacy in %) (Stellaria media [2]; application rate 320 g/ha): 100%; Veronica persica (Efficacy in %) (Veronica persica [3]; application rate 320 g/ha): 100%; Polygonum convolvulus (Efficacy in %) (Polygonum convolvulus [6]; application rate 320 g/ha): 100%; Abutilon theophrasti (Efficacy in %) (Abutilon theophrasti [7]; application rate 320 g/ha): 100%; Viola tricolor (Efficacy in %) (Viola tricolor [8]; application rate 320 g/ha): 100%; Setaria viridis (Efficacy in %) (Setaria viridis [9]; application rate 320 g/ha): 100%; Amaranthus retroflexus (Efficacy in %) (Amaranthus retroflexus [11]; application rate 80 g/ha): 100%; Stellaria media (Efficacy in %) (Stellaria media [13]; application rate 20 g/ha): 100%; Veronica persica (Efficacy in %) (Veronica persica [14]; application rate 20 g/ha): 100%; Alopecurus myosuroides (Efficacy in %) (Alopecurus myosuroides [15]): 80%; Abutilon theophrasti (Efficacy in %) (Abutilon theophrasti [18]; application rate 80 g/ha): 100%; Viola tricolor (Efficacy in %) (Viola tricolor [19]; application rate 20 g/ha): 100%; Setaria viridis (Efficacy in %) (Setaria viridis [20]; application rate 80 g/ha): 100%; Pharbitis purpurea (Efficacy in %) (Pharbitis purpurea [21]; application rate 80 g/ha): 100%; Amaranthus retroflexus (Efficacy in %) (Amaranthus retroflexus [22]; application rate 80 g/ha): 100%
